In PMC3312352, “Peptides of the Constant Region of Antibodies Display Fungicidal Activity” (PLoS ONE, 2012):
Like-named read-outs stand apart in the source and are kept apart here. Ends that are not written are not given here. Peptide text beside a SMILES is read from it.

Legend:
C. albicans SC5314 [1] = assay: CFU assay, in vitro fungicidal activity; conditions: for EC50 asd/EC50 T11F / EC50 asd/EC50 N10K: ratio of EC50 values against C. albicans SC5314; for EC50: read-out: EC50 (95% confidence intervals), scalar dilutions, 6 h at 37°C in distilled water, nonlinear regression; for EC50 / % inhibitory activity at 100 µg/ml in comparison to the control growth (water): CFU assay, C. albicans SC5314, triplicate; for % inhibitory activity at 100 µg/ml in comparison to the control growth (water): peptide 100 µg/ml, ~500 cells in 100 µl distilled water, 6 h at 37°C
Protocol: (§1) Selected Fc-peptides, or their asds, were preliminarily tested at the concentration of 100 µg/ml. […] Conventional colony forming unit (CFU) assays were performed as previously described [2]. Briefly, yeast cells from a fresh (20 h at 30°C) actively growing colony on Sabouraud Dextrose agar (SDA) (C. albicans, C. glabrata, C. neoformans) or on SDA supplemented with 1% Tween 20 (M. furfur) were suspended in 199 medium. Initial germination was induced in C. albicans cells by incubation for 1 h at 37°C with shaking. Suspensions were properly diluted to obtain approximately 500 fungal cells in 100 µl of distilled water in the presence or absence (control growth) of the synthetic Fc-peptide to be tested. Cell suspensions were incubated at 37°C for 6 h, then plated on SDA or SDA-Tween. CFU were enumerated after 48–72 h of incubation at 30°C, and peptide fungicidal activity was determined as percentage of CFU inhibition, according to the formula 100-(CFU Fc-peptide treated/CFU control growth)×100. Each assay was carried out in triplicate for statistical purposes.
(§2) EC50 was calculated by nonlinear regression analysis using Graph Pad Prism 4.01 software, San Diego, CA, USA.

C. albicans SC5314 [2] = conditions: SC5314, 6 h
Protocol: as §1, §2

C. albicans CA-6 = conditions: CA-6, 6 h
Protocol: as §1, §2

C. albicans SA40 = conditions: SA40, 6 h
Protocol: as §1, §2

C. neoformans 6995 = conditions: 6995, 6 h
Protocol: as §1, §2

M. furfur 101 = conditions: 6 h
Protocol: as §1, §2

C. albicans AIDS68 [3] = conditions: AIDS68, 6 h
Protocol: as §1, §2

C. glabrata OMNI32 = conditions: OMNI32, 6 h
Protocol: as §1, §2

C. albicans UM4 = conditions: UM4, 6 h
Protocol: as §1, §2

C. albicans AIDS68 [4] = assay: Experimental vaginal candidiasis in mice; format: in vivo, Candida albicans; conditions: mice infected with C. albicans AIDS68; 100 µg in PBS at 1, 24, 48 h after challenge

| Compound | EC50 asd/EC50 T11F (C. albicans SC5314 [1]) | EC50 (C. albicans SC5314 [1]) | % inhibitory activity at 100 µg/ml in comparison to the control growth (water) (C. albicans SC5314 [2]) | EC50 asd/EC50 N10K (C. albicans SC5314 [1]) | EC50 (C. albicans SC5314 [2]) | further results |
| --- | --- | --- | --- | --- | --- | --- |
| TCRADHRGLTF [Peptide V4A] | 0.74 | 1130 nM | 100% | – | – | – |
| NQVSLTCLAK [Peptide V9A] | – | – | 100% | 1.77 | 1780 nM | – |
| NQVSLTCLVA [Peptide K10A] | – | – | 0% | – | – | – |
| TCRVDHRALTF [Peptide G8A] | 1.01 | 1550 nM | 100% | – | – | – |
| NQVSLTCAVK [Peptide L8A] | – | – | – | 0.74 | 744 nM | % inhibitory activity at 100 µg/ml in comparison to the control growth (water) (C. albicans SC5314 [1]): 100% |
| TCRVDHRGATF [Peptide L9A] | 1.14 | 1750 nM | 100% | – | – | – |
| ACRVDHRGLTF [Peptide T1A] | 0.48 | 738 nM | 100% | – | – | – |
| TCRVDARGLTF [Peptide H6A] | 6.76 | 10400 nM | 100% | – | – | – |
| NAVSLTCLVK [Peptide Q2A] | – | – | 100% | 2.30 | 2300 nM | – |
| TCRVDHRGLTA [Peptide F11A] | 1.64 | 2520 nM | 100% | – | – | – |
| TCRVAHRGLTF [Peptide D5A] | 0.26 | 395 nM | 100% | – | – | – |
| NQVSATCLVK [Peptide L5A] | – | – | 100% | 0.88 | 885 nM | – |
| NQVALTCLVK [Peptide S4A] | – | – | 100% | 2.38 | 2390 nM | – |
| NQVSLTCLVK [Peptide N10K] | – | – | 100% | – | – | % inhibitory activity at 100 µg/ml in comparison to the control growth (water) (C. albicans CA-6): 100%; % inhibitory activity at 100 µg/ml in comparison to the control growth (water) (C. albicans SA40): 100%; % inhibitory activity at 100 µg/ml in comparison to the control growth (water) (C. neoformans 6995): 100%; % inhibitory activity at 100 µg/ml in comparison to the control growth (water) (M. furfur 101): 100%; % inhibitory activity at 100 µg/ml in comparison to the control growth (water) (C. albicans AIDS68 [3]): 100%; % inhibitory activity at 100 µg/ml in comparison to the control growth (water) (C. glabrata OMNI32): 100%; % inhibitory activity at 100 µg/ml in comparison to the control growth (water) (C. albicans UM4): 100% |
| CC(C)C[C@H](NC(=O)[C@H](C)NC(=O)[C@H](CCC(=O)O)NC(=O)[C@@H](N)Cc1c[nH]cn1)C(=O)O [Peptide H4L] (H-HEAL-OH; N-terminus and C-terminus assumed) | – | – | 84.34% | – | – | % inhibitory activity at 100 µg/ml in comparison to the control growth (water) (C. albicans CA-6): 57.04%; % inhibitory activity at 100 µg/ml in comparison to the control growth (water) (C. albicans SA40): 55.99%; % inhibitory activity at 100 µg/ml in comparison to the control growth (water) (C. neoformans 6995): 85.08%; % inhibitory activity at 100 µg/ml in comparison to the control growth (water) (M. furfur 101): 92.04%; % inhibitory activity at 100 µg/ml in comparison to the control growth (water) (C. albicans AIDS68 [3]): 59.82%; % inhibitory activity at 100 µg/ml in comparison to the control growth (water) (C. glabrata OMNI32): 80.49%; % inhibitory activity at 100 µg/ml in comparison to the control growth (water) (C. albicans UM4): 64.63% |
| NQASLTCLVK [Peptide V3A] | – | – | – | 5.91 | 5930 nM | % inhibitory activity at 100 µg/ml in comparison to the control growth (water) (C. albicans SC5314 [1]): 100% |
| OC(Cn1cncn1)(Cn1cncn1)c1ccc(F)cc1F [fluconazole] | – | – | – | – | – | response of vaginal infection to treatment (C. albicans AIDS68 [4]): resistant to treatment |
| NQVSLTALVK [Peptide C7A] | – | – | 73.41% | 54.66 | 54900 nM | – |
| AQVSLTCLVK [Peptide N1A] | – | – | 100% | 0.58 | 587 nM | – |
| TARVDHRGLTF [Peptide C2A] | 21.12 | 32500 nM | 79.32% | – | – | – |
| TCRVDHRGLAF [Peptide T10A] | 0.55 | 850 nM | 100% | – | – | – |
| NQVSLACLVK [Peptide T6A] | – | – | 100% | 4.86 | 4880 nM | – |
| TCRVDHRGLTF [Peptide T11F] | – | – | 100% | – | – | % inhibitory activity at 100 µg/ml in comparison to the control growth (water) (C. albicans CA-6): 100%; % inhibitory activity at 100 µg/ml in comparison to the control growth (water) (C. albicans SA40): 100%; % inhibitory activity at 100 µg/ml in comparison to the control growth (water) (C. neoformans 6995): 100%; % inhibitory activity at 100 µg/ml in comparison to the control growth (water) (M. furfur 101): 100%; % inhibitory activity at 100 µg/ml in comparison to the control growth (water) (C. albicans AIDS68 [3]): 100%; % inhibitory activity at 100 µg/ml in comparison to the control growth (water) (C. glabrata OMNI32): 100%; % inhibitory activity at 100 µg/ml in comparison to the control growth (water) (C. albicans UM4): 100% |
| TCAVDHRGLTF [Peptide R3A] | 8.74 | 13500 nM | 97.61% | – | – | – |
| TCRVDHAGLTF [Peptide R7A] | 7.83 | 12100 nM | 100% | – | – | – |
